Reference: ChEMBL document CHEMBL1201862, “PubChem BioAssay data set” (2004)
Active and inactive are the calls of the source.

Tests used:
Large T antigen = Large T antigen (Simian virus 40, UniProt P03070); format: functional, Betapolyomavirus macacae;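 note: Confirmatory-stage PubChem screen for compounds that inhibit SV40 T antigen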
Protein skinhead-1 = biological target: T1, Protein skinhead-1 (Caenorhabditis elegans, UniProt P34707); format: functional
T1 sequence (P34707 whole entry): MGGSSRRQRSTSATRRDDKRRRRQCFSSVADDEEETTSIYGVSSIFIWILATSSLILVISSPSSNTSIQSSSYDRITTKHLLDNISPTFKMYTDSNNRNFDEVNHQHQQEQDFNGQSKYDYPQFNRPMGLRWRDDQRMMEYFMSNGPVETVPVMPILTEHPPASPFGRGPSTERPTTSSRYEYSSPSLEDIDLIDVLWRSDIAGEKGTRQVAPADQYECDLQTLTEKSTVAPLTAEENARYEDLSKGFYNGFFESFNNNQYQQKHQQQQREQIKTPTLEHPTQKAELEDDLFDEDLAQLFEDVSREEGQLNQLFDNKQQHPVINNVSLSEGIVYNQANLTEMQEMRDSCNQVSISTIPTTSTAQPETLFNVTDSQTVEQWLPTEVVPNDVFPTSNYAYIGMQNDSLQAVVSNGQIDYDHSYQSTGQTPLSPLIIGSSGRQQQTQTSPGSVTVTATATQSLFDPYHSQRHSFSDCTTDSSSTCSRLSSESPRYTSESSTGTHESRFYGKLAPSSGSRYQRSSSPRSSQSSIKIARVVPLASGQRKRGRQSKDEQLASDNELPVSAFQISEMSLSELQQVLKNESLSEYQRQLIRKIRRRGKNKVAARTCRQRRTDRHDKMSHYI

[1] = biological target: T2, Ubiquitin-conjugating enzyme E2 N (Homo sapiens, UniProt P61088); format: functional;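 note: Dose-response confirmation in a TR-FRET assay detecting UBC13-driven polyubiquitin chain formation, inhibition measured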
T2 sequence (P61088 whole entry): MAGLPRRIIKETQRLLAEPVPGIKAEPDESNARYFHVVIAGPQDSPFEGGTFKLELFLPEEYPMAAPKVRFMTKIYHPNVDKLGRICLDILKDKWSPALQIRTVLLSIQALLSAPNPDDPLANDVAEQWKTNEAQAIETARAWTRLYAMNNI

[2] = reduction of Shn3 3'UTR-driven luciferase in osteoblasts – cell-based, Clone20 osteoblasts, firefly luciferase, cherry-picked, dose response (AID 624132); format: functional;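 note: firefly luciferase luminescence from reporter carrying the Shn3 3'UTR in osteoblasts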
[3] = non-specific 3'UTR reporter inhibition in Clone20-Shn3RL – cell-based, Renilla luciferase, cherry-picked, counter-screen for Shn3 inhibitor project, dose response (AID 624133); format: functional
[4] = loss of viability in HepG2 cells – cell-based, CellTiter-Glo, cherry-picked, cytotoxicity control for Shn3 inhibitor project, dose response (AID 624134); format: functional
[5] = P. falciparum Dd2 growth inhibitors, dose response, SYBR Green, cherry-picked samples (AID 1159567); format: functional, cell-based
[6] = biological target: T3, Rac GTPase-activating protein 1 (Homo sapiens, UniProt Q9H0H5); assay: blockers of MgcRacGAP-driven Rac1 GTP hydrolysis – biochemical, ADP Hunter fluorescence, primary and confirmatory, confirmation (AID 624330); format: functional
T3 sequence (Q9H0H5 whole entry): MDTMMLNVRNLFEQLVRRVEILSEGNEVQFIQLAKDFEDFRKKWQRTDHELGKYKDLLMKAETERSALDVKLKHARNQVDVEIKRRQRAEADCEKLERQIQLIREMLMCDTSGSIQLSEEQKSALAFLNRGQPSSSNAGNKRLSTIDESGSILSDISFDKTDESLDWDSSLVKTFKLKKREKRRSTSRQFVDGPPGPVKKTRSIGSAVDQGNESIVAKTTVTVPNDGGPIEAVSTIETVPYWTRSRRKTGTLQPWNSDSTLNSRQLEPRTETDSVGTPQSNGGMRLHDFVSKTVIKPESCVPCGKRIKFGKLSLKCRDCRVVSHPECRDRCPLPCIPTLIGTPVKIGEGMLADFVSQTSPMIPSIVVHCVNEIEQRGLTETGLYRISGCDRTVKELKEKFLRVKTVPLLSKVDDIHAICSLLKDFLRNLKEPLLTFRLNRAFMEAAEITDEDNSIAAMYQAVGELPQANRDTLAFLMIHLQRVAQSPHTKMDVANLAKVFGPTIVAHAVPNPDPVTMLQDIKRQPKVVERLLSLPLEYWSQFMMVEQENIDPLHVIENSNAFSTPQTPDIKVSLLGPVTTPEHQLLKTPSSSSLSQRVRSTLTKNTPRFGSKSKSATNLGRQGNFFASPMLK

[7] = biological target: T4, Corticotropin-releasing factor receptor 2/Corticotropin-releasing factor-binding protein (Homo sapiens, UniProt P24387+Q13324); assay: activators of CRF receptor 2 with binding protein – uHTS hits, confirmation (AID 602473); format: functional; details: read-out: EC50_Mean
T4 sequence (Q13324 whole entry): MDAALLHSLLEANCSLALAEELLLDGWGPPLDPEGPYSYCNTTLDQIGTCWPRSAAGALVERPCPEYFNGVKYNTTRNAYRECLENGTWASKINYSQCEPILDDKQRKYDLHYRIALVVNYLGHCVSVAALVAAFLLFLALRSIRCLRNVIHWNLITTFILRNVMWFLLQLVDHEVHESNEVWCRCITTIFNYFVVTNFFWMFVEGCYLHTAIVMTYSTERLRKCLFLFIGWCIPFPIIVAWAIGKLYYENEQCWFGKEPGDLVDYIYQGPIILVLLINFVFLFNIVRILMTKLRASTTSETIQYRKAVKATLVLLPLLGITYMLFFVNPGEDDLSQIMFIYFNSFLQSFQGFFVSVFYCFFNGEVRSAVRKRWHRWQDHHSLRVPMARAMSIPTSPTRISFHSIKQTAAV
T4 sequence (P24387 whole entry): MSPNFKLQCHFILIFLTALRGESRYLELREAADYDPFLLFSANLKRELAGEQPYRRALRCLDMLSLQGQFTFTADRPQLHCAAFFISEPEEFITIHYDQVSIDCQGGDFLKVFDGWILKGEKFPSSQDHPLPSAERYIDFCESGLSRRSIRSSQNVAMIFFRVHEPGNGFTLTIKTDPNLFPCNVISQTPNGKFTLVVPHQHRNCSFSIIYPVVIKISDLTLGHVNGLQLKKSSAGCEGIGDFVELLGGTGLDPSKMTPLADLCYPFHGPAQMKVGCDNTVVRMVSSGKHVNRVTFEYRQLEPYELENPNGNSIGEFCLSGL

[8] = biological target: T4, Corticotropin-releasing factor receptor 2/Corticotropin-releasing factor-binding protein; assay: Dose Response confirmation of uHTS hits for small molecule antagonists of the CRF-binding protein and CRF-R2 receptor complex.; format: functional; details: read-out: IC50_Mean
[9] = biological target: Induced myeloid leukemia cell differentiation protein Mcl-1 (Homo sapiens, UniProt Q07820); format: functional
H9c2 = assay: cells; format: functional, cell-based; details: Rattus norvegicus, H9c2, Myocardium;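 note: confirmatory concentration-response retest of ultra-high-throughput screening hits for modulation of myocardial damage; cell death induced by hydrogen peroxide oxidative stress; compound pretreatment for 60 min then peroxide exposure for 2 h; potency is for protecting the cells against peroxide damage rather than for killing them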
Cytochrome P450 3A4 = Cytochrome P450 3A4 (Homo sapiens, UniProt P08684);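 note: CYP3A4 tested as one member of a cytochrome P450 panel screen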
Cytochrome P450 2C9 = Cytochrome P450 2C9 (Homo sapiens, UniProt P11712)
Nonstructural protein 1 = Nonstructural protein 1 (Influenza A virus, UniProt Q194T2); format: functional, Influenza A virus (A/California/07/2009(H1N1))
[10] = biological target: T5, Heat shock factor protein 1 (Mus musculus, UniProt P38532); assay: enhancement of HSF1-driven luciferase signal – cell-based, NIH3T3, luminescence, dose retest, confirmation (AID 435004); format: functional;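 note: stress induced by proteasome inhibitor MG132 added 30 min after compound; luciferase reporter driven by HSF1 response element in NIH3T3 cells; actives raise luminescence as potentiators of the MG132 stress response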
T5 sequence (P38532 whole entry): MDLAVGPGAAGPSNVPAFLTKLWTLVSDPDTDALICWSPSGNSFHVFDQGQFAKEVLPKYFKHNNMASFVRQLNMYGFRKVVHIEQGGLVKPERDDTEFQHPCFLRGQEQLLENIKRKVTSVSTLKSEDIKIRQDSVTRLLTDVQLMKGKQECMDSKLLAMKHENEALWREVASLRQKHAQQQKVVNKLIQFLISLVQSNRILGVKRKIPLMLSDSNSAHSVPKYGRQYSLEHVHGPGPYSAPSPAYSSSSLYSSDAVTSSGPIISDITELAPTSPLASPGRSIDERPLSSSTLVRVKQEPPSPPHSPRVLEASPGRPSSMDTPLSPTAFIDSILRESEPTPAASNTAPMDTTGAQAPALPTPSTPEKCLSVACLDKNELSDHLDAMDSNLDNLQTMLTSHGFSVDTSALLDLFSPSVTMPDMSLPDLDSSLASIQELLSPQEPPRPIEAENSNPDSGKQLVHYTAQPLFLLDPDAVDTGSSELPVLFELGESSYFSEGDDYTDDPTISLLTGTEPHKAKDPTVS

CN(C)c1ccc(NC(=O)CN2CCC(N3CCCCC3)CC2)cc1
IC50 (Large T antigen): 22.9 µM (active)

COc1ccc(NS(=O)(=O)c2ccc3c(c2)n(C)c(=O)n3C)cc1
IC50 (Protein skinhead-1): > 100 µM (inactive)

Cc1c(Br)c(C(=O)NNC(=O)c2ccc(C(C)(C)C)cc2)nn1C
IC50 [1]: > 20 µM (inactive)

CCOC(=O)C1(CCOc2ccccc2)CCN(Cc2ccc(OC)c(COC)c2)CC1
AC50 [2]: 3.87 µM (active)
AC50 [3]: 20.5 µM (active)
AC50 [4]: 32.5 µM (active)

C=CCn1c(CC(=O)Nc2cccc(OC)c2)nnc1SCC(=O)NC1CCCCC1
IC50 (Protein skinhead-1): > 100 µM (inactive)

O=C(Nc1ccc2c(c1)OCO2)c1cccc(F)c1
IC50 (Protein skinhead-1): > 100 µM (inactive)

Cc1cc(-c2nnc(S)n2/N=C/C=C/c2ccco2)[nH]n1
IC50 (Large T antigen): 32.1 µM (active)

CCCCCCCCNC(=O)C(CCC(=O)OCc1ccccc1)NC(C)=O (stereo unspecified)
IC50 (Protein skinhead-1): > 100 µM (inactive)

CCS(=O)(=O)N1CCC2(CC1)CN(Cc1ccc3c(c1)OCO3)[C@H](CO)c1[nH]c3cc(OC)ccc3c12
AC50 [5]: 5.03 µM (active)

CCOC(=O)C1=C(COC(=O)c2ccc(Cl)cc2[N+](=O)[O-])NC(=O)NC1C (stereo unspecified)
IC50 (Protein skinhead-1): > 100 µM (inactive)

O=[N+]([O-])c1cccc(S(=O)(=O)N/N=C/c2ccc(O)cc2)c1
IC50 [6]: 49.5 µM (active)
IC50 (Large T antigen): 10.6 µM (active)

Cc1cccc(S(=O)(=O)N2C[C@@H]3N[C@H](C2)[C@@H]3c2ccc(-c3cccnc3)cc2)c1
AC50 [5]: 6 µM (active)

CCC(=O)Nc1nc(CC(=O)Nc2ccccc2OC)cs1
IC50 (Protein skinhead-1): > 100 µM (inactive)

Cn1c(=O)cc(OCCCC(=O)NCCN2CCN(c3ccccc3F)CC2)c2ccccc21
EC50 [7]: > 53 µM (inactive)
IC50 [8]: > 47.1 µM (inactive)
IC50 [1]: > 20 µM (inactive)

CN1CCN(S(=O)(=O)c2ccc(N(C)Cc3ccc(C(F)(F)F)cc3)c([N+](=O)[O-])c2)CC1
AC50 [2]: 6.3 µM (active)
AC50 [3]: 17.6 µM (active)
AC50 [4]: 45.9 µM (active)

COc1ccc(C(c2c(O)cc(C)oc2=O)c2c(O)cc(C)oc2=O)cc1
IC50 [9]: 1.45 µM (not active)

COc1ccc(-c2ccc(Nc3ccc(S(=O)(=O)N4CCCC4)cc3)nn2)cc1OC
AC50 [2]: 20.1 µM (active)
AC50 [3]: 27.6 µM (active)
IC50 (H9c2): > 79 µM (inactive)

Cc1ccc(OCCCC(=O)Nc2ccccc2C(F)(F)F)cc1
AC50 (Cytochrome P450 3A4): 15.8 µM (inconclusive)
IC50 [9]: > 54 µM (not active)

C[C@@H]1CN([C@H](C)CO)C(=O)c2c(c3ccccc3n2C)-c2ccccc2CO[C@@H]1CN(C)C(=O)c1cc(Cl)cc(Cl)c1
AC50 [5]: 3.06 µM (active)

Cc1ccc(OCCCC(=O)Nc2ccc(S(=O)(=O)N3CCOCC3)cc2)cc1
IC50 [1]: > 20 µM (inactive)

Cc1ccc2nc(O)c(N=C(N)S)nc2c1
AC50 (Cytochrome P450 2C9): 10 µM (inconclusive)
IC50 [1]: > 20 µM (inactive)

O=C(NN=Cc1c(O)ccc2ccccc12)c1ccc[n+](CCO)c1
IC50 (Nonstructural protein 1): 3.07 µM (active)

N#CC(C#N)=C(N)/C(C#N)=C/c1cc(O)c(O)c(O)c1 [TYRPHOSTIN 51]
IC50 (Large T antigen): 19.8 µM (active)

CN(C)C(CNC(=O)c1coc2ccccc2c1=O)c1ccccc1 (stereo unspecified)
IC50 [1]: > 20 µM (inactive)

Cc1ccc(-c2ccc([C@H]3[C@@H](CO)N4C(=O)CN(C(=O)Nc5cccc(F)c5)C[C@H]34)cc2)cc1
AC50 [5]: 6.09 µM (active)

O=C(COC(=O)Cn1cnc2ccccc21)Nc1ccc2c(c1)C(=O)c1ccccc1C2=O
IC50 [9]: 6.69 µM (active)

COC(=O)c1ccc(CSc2nc(-c3ccccc3)cs2)o1
IC50 [9]: 3.49 µM (not active)

Cc1ccccc1-c1nnc(S)n1/N=C/C=C/c1ccco1
IC50 (Large T antigen): 53 µM (active)

c1ccc2c(CCN3CCNC[C@H]3Cc3cccc4ccccc34)cccc2c1
IC50 [1]: > 20 µM (inactive)

CCCN(C)C[C@H]1Oc2cc(C#Cc3cccnc3)ccc2S(=O)(=O)N([C@H](C)CO)C[C@H]1C
AC50 [5]: 3.19 µM (active)

NC1=NC[C@H](Cc2ccccc2)N1CCc1cc(C(F)(F)F)cc(C(F)(F)F)c1
IC50 [1]: > 20 µM (inactive)

CC[C@@H](C)[C@@H]1CN([C@@H](C)CN2CCC[C@H]2CN2C(N)=NC[C@H]2CC(C)C)C(=N)N1CCc1ccc(Cl)c(Cl)c1
IC50 [1]: > 20 µM (inactive)

COc1ccc(C(=O)Cn2c(C(=O)/C=C/c3ccccc3)nc3ccccc32)cc1
EC50 [10]: 4.59 µM (active)
AC50 [2]: 4.47 µM (active)
AC50 [4]: 59.1 µM (active)
